The results in this text go back to patent US20240383911A1, “AZAINDAZOLE MACROCYCLE COMPOUNDS AND USES THEREOF” (BROADENBIO CO., LTD, priority 2021, published 2024).

One assay concerns Human Jurkat-E6-1 cells. Briefly: Detection of IL-2 production by Jurkat cells using ELISA. The format is cell-based. Conditions: anti-CD3/anti-CD28 stimulation 24 hours, tested compound 1.0 μM, read-out: Percentage of the amount of IL-2 secreted by compound treated vs DMSO-treated cells. In a few lines:
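Jurkat E6-1 cells were pre-incubated with compound for 30 min at 37 °C, then stimulated 24 h on plate-bound anti-CD3 plus soluble anti-CD28. Secreted IL-2 in supernatant was measured by sandwich ELISA (450 nm) against a standard curve and expressed as % of DMSO-treated cells.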
In general terms: ELISA stands for enzyme-linked immunosorbent assay.

Another assay deals with HPK1 (Homo sapiens, UniProt Q92918). Briefly: HPK1 kinase activity inhibition test (ADP-Glo, luminescence). The format is biochemical. Conditions: 2 μM ATP, 5 nM HPK1, read-out: IC50, inhibitory effects on HPK1 kinase activity. In a few lines: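 Autophosphorylation assay without added substrate: HPK1 preincubated with compound 10 min at 25 °C, then ATP added for 60 min at 25 °C; final DMSO 0.5%. ADP measured by ADP-Glo luminescence; IC50 from four-parameter nonlinear fit.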
(ADP-Glo turns the ADP formed in a reaction into a luminescent signal.)

Sequence of HPK1 (Q92918 whole entry): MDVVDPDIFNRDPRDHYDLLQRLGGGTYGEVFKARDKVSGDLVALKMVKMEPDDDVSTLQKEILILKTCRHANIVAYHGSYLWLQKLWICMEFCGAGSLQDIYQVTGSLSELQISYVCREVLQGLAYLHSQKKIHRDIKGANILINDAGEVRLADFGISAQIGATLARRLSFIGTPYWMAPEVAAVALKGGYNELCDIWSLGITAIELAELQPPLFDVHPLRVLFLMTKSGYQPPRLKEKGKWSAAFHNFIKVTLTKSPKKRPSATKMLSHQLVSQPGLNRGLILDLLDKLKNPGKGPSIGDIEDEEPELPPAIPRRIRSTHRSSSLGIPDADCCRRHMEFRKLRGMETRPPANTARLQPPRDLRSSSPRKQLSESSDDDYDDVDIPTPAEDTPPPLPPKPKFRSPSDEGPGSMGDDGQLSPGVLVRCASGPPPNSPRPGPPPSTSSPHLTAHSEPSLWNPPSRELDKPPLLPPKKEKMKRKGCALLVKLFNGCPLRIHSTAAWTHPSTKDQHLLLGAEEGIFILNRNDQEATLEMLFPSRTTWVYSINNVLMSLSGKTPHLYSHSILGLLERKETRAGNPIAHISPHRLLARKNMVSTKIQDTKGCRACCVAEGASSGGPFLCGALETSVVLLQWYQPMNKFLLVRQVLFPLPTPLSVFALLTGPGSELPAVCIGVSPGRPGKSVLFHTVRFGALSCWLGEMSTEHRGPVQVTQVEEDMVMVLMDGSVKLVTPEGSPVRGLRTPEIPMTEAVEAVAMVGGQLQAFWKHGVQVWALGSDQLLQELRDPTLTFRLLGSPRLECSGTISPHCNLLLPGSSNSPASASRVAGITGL

Turning to `CN1CCN(c2ncc3cc2OCCCOc2cccc(F)c2-c2cc4c-3n[nH]c4cn2)CC1` [Compound 3, 16-fluoro-5-(4-methylpiperazin-1-yl)-7,11-dioxa-4,19,22,23-tetraazapentacyclo[16.5.2.1^2,6.0^12,17.0^21,24]hexacosa-1(23),2(26),3,5,12,14,16,18,20,24-decaene], the activity at 1 µM in the assay with Human Jurkat-E6-1 cells turned out to be 823%. In addition, the IC50 at HPK1 is at most 5 nM.
As for `CN1CCN(c2ccc3cc2OCCCOc2cccc(F)c2-c2cc4c-3n[nH]c4cn2)CC1` [Compound 6, 16-fluoro-5-(4-methylpiperazin-1-yl)-7,11-dioxa-19,22,23-triazapentacyclo[16.5.2.1^2,6.0^12,17.0^21,24]hexacosa-1(23),2(26),3,5,12,14,16,18,20,24-decaene], in the assay on Human Jurkat-E6-1 cells, the activity at 1 µM was determined as 542%. Besides, on HPK1, the IC50 was at most 5 nM.
Taken in the same sequence, the figures for `CN1CCN(c2ccc3cc2OCCOCc2cccc(F)c2-c2cc4c-3n[nH]c4cn2)CC1` [Compound 9, 16-fluoro-5-(4-methylpiperazin-1-yl)-7,10-dioxa-19,22,23-triazapentacyclo[16.5.2.1^2,6.0^12,17.0^21,24]hexacosa-1(23),2(26),3,5,12,14,16,18,20,24-decaene] were 568% and at most 5 nM.

One may read the IC50 as the concentration needed to halve the response being measured.
